In ChEMBL document CHEMBL4251544, “Identification of imidazo[1,2-b]pyridazine TYK2 pseudokinase ligands as potent and selective allosteric inhibitors of TYK2 signalling” (Medchemcomm, 2017):

Legend:
Assay type in all cases: ADME, organism-based
[1] = AUClast in Balb/c mouse at 3 mg/kg, iv; parameters: dose 3 mg/kg, route intravenous, time 0 - last; conditions: in vivo
[2] = AUClast in Balb/c mouse at 25 mg/kg, po; parameters: dose 25 mg/kg, route oral, time 0 - last; conditions: in vivo
[3] = Cmax in Balb/c mouse at 25 mg/kg, po; parameters: dose 25 mg/kg, route oral; conditions: in vivo
[4] = Volume of distribution at steady state in Balb/c mouse at 3 mg/kg, iv; conditions: in vivo, read-out: Vdss
[5] = Oral bioavailability in Balb/c mouse at 25 mg/kg; conditions: in vivo

In the case of CNc1cc(Nc2cc(F)cc(F)c2OC)nn2c(C(=O)NC[C@](C)(O)CO)cnc12, the AUC(0-t) [1] is reported as 2.3 µM·h, the AUC(0-t) [2] is reported as 5.1 µM·h and the Cmax [3] is reported as 2800 nM. The Vd [4] was 6.3 L/kg and the bioavailability [5] was 27%.
